Experimental data taken from PubChem BioAssay (NCI).
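These data come from cells grown in 96-well plates and exposed to compound for 48 hours at five concentrations. GI50 marks 50% less growth. TGI marks complete inhibition of growth.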

What was measured:
Experiment in all cases: DTP human tumour cell line panel, 48 h
[1] = tested on: NCI/ADR-RES ovarian
[2] = tested on: SK-MEL-2 melanoma
[3] = tested on: SNB-19 CNS
[4] = tested on: LOX IMVI melanoma
[5] = tested on: MOLT-4 leukemia
[6] = tested on: HCC-2998 colon
[7] = tested on: CCRF-CEM leukemia
[8] = tested on: HCT-116 colon
[9] = tested on: BT-549 breast
[10] = tested on: COLO 205 colon
[11] = tested on: DU-145 prostate
[12] = tested on: HOP-92 NSCLC
[13] = tested on: SR leukemia
[14] = tested on: UACC-62 melanoma
[15] = tested on: NCI-H460 lung
[16] = tested on: OVCAR-5 ovarian
[17] = tested on: SK-MEL-5 melanoma
[18] = tested on: OVCAR-4 ovarian
[19] = tested on: M14 melanoma
[20] = tested on: SK-MEL-28 melanoma
[21] = tested on: UACC-257 melanoma
[22] = tested on: HCT-15 colon
[23] = tested on: MCF7 breast
[24] = tested on: UO-31 renal
[25] = tested on: HL-60(TB) leukemia
[26] = tested on: SW-620 colon

For `CC(=O)O[C@H](C[C@H](C(C)C)N(C)C(=O)[C@@H](NC(=O)[C@H]1CCCN1C)C(C)C)c1nc(C(=O)N[C@@H](Cc2ccccc2)C[C@H](C)C(=O)O)c(C)s1`, which GI50 [1] is on record?
The GI50 was 102 nM.

What about the TGI [1] of the same compound?
The TGI was greater than 16700 nM.

And the GI50 [2]?
The GI50 was less than 1.67 nM.

And the TGI [2]?
Its TGI is greater than 16700 nM.

And the GI50 [3]?
The GI50 was less than 1.67 nM.

And the TGI [3]?
The TGI was greater than 16700 nM.

And the GI50 [4]?
The GI50 was less than 1.67 nM.

What about the TGI [4] of the same compound?
The TGI was greater than 16700 nM.

What about the GI50 [5] of the same compound?
The GI50 was less than 1.67 nM.

And the TGI [5]?
The TGI was greater than 16700 nM.

What about the GI50 [6] of the same compound?
The GI50 was 2.52 nM.

What about the TGI [6] of the same compound?
The TGI was greater than 16700 nM.

And the GI50 [7]?
Its GI50 is less than 1.67 nM.

And the TGI [7]?
Its TGI is greater than 16700 nM.

And the GI50 [8]?
The GI50 was less than 1.67 nM.

And the TGI [8]?
The TGI was greater than 16700 nM.

What about the GI50 [9] of the same compound?
Its GI50 is less than 1.67 nM.

And the TGI [9]?
Its TGI is 151 nM.

What about the GI50 [10] of the same compound?
The GI50 was 1.97 nM.

What about the TGI [10] of the same compound?
Its TGI is 25.5 nM.

And the GI50 [11]?
The GI50 was 2.24 nM.

What about the TGI [11] of the same compound?
Its TGI is greater than 16700 nM.

What about the GI50 [12] of the same compound?
The GI50 was 12400 nM.

And the TGI [12]?
The TGI was greater than 16700 nM.

What about the GI50 [13] of the same compound?
The GI50 was less than 1.67 nM.

What about the TGI [13] of the same compound?
The TGI was greater than 16700 nM.

And the GI50 [14]?
Its GI50 is less than 1.67 nM.

What about the TGI [14] of the same compound?
Its TGI is greater than 16700 nM.

And the GI50 [15]?
The GI50 was less than 1.67 nM.

What about the TGI [15] of the same compound?
The TGI was greater than 16700 nM.

What about the GI50 [16] of the same compound?
The GI50 was 7.16 nM.

What about the TGI [16] of the same compound?
Its TGI is greater than 16700 nM.

And the GI50 [17]?
The GI50 was less than 1.67 nM.

What about the TGI [17] of the same compound?
The TGI was 24.3 nM.

What about the GI50 [18] of the same compound?
The GI50 was 77.3 nM.

What about the TGI [18] of the same compound?
The TGI was greater than 16700 nM.

What about the GI50 [19] of the same compound?
Its GI50 is less than 1.67 nM.

What about the TGI [19] of the same compound?
Its TGI is greater than 16700 nM.

What about the GI50 [20] of the same compound?
Its GI50 is 5.57 nM.

And the TGI [20]?
The TGI was greater than 16700 nM.

What about the GI50 [21] of the same compound?
Its GI50 is greater than 16700 nM.

What about the TGI [21] of the same compound?
The TGI was greater than 16700 nM.

And the GI50 [22]?
The GI50 was 7.72 nM.

What about the TGI [22] of the same compound?
Its TGI is greater than 16700 nM.

And the GI50 [23]?
Its GI50 is less than 1.67 nM.

And the TGI [23]?
The TGI was greater than 16700 nM.

What about the GI50 [24] of the same compound?
The GI50 was 11 nM.

And the TGI [24]?
Its TGI is greater than 16700 nM.

And the GI50 [25]?
The GI50 was less than 1.67 nM.

What about the TGI [25] of the same compound?
Its TGI is less than 1.67 nM.

What about the GI50 [26] of the same compound?
The GI50 was less than 1.67 nM.

What about the TGI [26] of the same compound?
Its TGI is greater than 16700 nM.
